Reference: patent US20190110981A1, “Cannabinoid Patch” (LIFE TECH GLOBAL, LLC, priority 2017, published 2019)

Legend:
[1] = In vitro transdermal flux, human cadaver skin and Franz diffusion cell; format: in vitro ADME; settings: for Flux over the course of about 20 hours: monolithic PIB patch with oil containing CBD/THC 1:1, Franz diffusion cell (FIG. 3)
Source text: FIG. 1. In vitro cumulative flux (micrograms/cm^2) of cannabidiol (CBD) through skin versus time (hours).
FIG. 2. In vitro flux of tetrahydrocannabinol (THC) from ethanol/water, at each of the indicated ratios of ethanol/water.
The disclosure provides a graph of transdermal flux (FIG. 3). […] Alternatively, the oil contains CBD/THC in a 1:1 ratio (wt./wt.).
The following concerns reservoir patches. The composition inside the reservoir can have the consistency of a paste, but in an alternative embodiment, it can have the consistency of an oil, or it can have the consistency of a liquid, or it can have the consistency of a slurry. Parameters for FIG. 2 are as follows. Flux was allowed to occur for 24 hours, and FIG. 2 provides the value at 24 hours, […] The layers are 30 cm square and the hydrogel is one cm cubed or one milliliter. The layers have microporous membrane with […] pore size. The layers have occlusive heat seal around edges. There is a protective release liner. The embodiment can be made with or without silicone adhesive.

[2] = as measured at room temperature; cited from earlier work

Compound | Flux over the course of about 20 hours ([1]; human cadaver skin) | pKa [2] | Effect of enhancer on transdermal delivery of CBD from PIB [1] | further results
C=C(C)[C@@H]1CCC(C)=C[C@H]1c1c(O)cc(CCCCC)cc1O [CBD, cannabidiol] | at least 4 micrograms per cm^2 |  |  | Flux of CBD from matrix with hemp oil of 92% CBD relative to adhesive matrix with crystalline CBD ([1]; PIB monolithic patch, 15% CBD oil vs 15% crystalline CBD (FIG. 1)): about 5 times; Cumulative flux of CBD ([1]; over ten hours, dermal patch with PIB and about 15% CBD oil, human cadaver skin, Franz diffusion cell): at least 20 micrograms CBD per cm^2
O=S(=O)(O)CCNC1CCCCC1 [CHES] |  | 9.5 |  | 
O=S(=O)(O)CCN1CCN(CCS(=O)(=O)O)CC1 [PIPES] |  | 6.8 |  | 
CCCCCc1cc(O)c2c(c1)OC(C)(C)[C@@H]1CCC(C)=C[C@@H]21 [THC, delta-9-tetrahydrocannabinol] | at least 1.0 micrograms per cm^2 |  |  | THC flux by solvent in reservoir patch ([1]; THC oil mixed with ethanol and with EtOH/water of different ratios): highest flux from pure ethanol; THC flux from ethanol in reservoir patch relative to monolithic patch ([1]; reservoir patch, THC oil mixed with ethanol (FIG. 2)): 4 times; Cumulative flux of THC ([1]; reservoir patch, saturated ethanol/water about 60/40 with 25% THC oil, value at 24 hours (FIG. 2)): at least 50 micrograms THC per cm^2
CCCCCCCCCCCCN1CCCCCC1=O [azone, 1-dodecylazacycloheptane-2-one] |  |  | double | 
CCCCCCCC/C=C\CCCCCCCC(=O)O [oleic acid] |  |  | double | 
